In US9067922B2, “Chemical compounds” (Pfizer Limited, priority 2013, dated 2015):

Biological target: URAT-1 transporter (Homo sapiens (Human), UniProt Q96S37)
Assay: URAT-1 inhibitor activity: [14C]-uric acid uptake in CHO-URAT1(L)GFP#8 (CHO#8) cells, scintillation proximity
Format: cell-based
Settings: inhibition of [14C]-uric acid (30 nM) uptake into CHO#8 cells; compound 0 to 10 μM; 4 parameter logistic fit
Outline: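 CHO cells stably expressing human URAT1 long isoform–eGFP fusion, pre-incubated 1 h in chloride-containing buffer pH 7.4, then given 30 nM [14C]-uric acid with compound (0–10 μM, 0.25% DMSO) in chloride-free gluconate buffer pH 7.4. Uptake measured by scintillation proximity on Cytostar plates.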

Sequence of URAT-1 transporter (Q96S37 other isoform, or with tags, fused parts or gaps): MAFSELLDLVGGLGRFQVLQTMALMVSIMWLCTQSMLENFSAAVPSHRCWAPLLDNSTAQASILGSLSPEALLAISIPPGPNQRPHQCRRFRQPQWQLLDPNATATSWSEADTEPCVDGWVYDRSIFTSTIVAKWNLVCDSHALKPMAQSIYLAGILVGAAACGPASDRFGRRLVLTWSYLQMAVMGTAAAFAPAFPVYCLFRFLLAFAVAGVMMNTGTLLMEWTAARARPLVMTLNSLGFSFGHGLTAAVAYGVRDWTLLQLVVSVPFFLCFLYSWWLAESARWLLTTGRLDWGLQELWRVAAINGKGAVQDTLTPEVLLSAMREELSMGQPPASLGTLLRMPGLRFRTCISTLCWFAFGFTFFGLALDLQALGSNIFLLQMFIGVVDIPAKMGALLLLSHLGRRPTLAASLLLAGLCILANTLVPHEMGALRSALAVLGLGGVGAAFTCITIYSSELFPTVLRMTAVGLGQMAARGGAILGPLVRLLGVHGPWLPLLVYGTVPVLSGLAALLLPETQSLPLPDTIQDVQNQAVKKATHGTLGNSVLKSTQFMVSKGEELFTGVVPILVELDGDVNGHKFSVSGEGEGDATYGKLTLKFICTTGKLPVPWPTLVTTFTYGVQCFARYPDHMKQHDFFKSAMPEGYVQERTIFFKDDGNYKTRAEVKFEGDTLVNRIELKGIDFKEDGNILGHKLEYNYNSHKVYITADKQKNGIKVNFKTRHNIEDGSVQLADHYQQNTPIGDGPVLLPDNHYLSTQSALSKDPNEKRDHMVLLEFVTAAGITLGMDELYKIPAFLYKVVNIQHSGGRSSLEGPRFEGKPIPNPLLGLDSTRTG

`N#Cc1cc(S(=O)(=O)Nc2ccc(F)cn2)ccc1Oc1cc(F)c(F)cc1Cl` [Example 177, 4-(2-chloro-4,5-difluorophenoxy)-3-cyano-N-(5-fluoropyridin-2-yl)benzenesulfonamide] showed an IC50 of 246 nM.
For `N#Cc1cc(S(=O)(=O)Nc2ccc(F)cn2)ccc1Oc1cc(F)ccc1F` [Example 53, 3-cyano-4-(2,5-difluorophenoxy)-N-(5-fluoropyridin-2-yl)benzenesulfonamide], the IC50 was 191 nM.
Work on `N#Cc1ccc(NS(=O)(=O)c2ccc(Oc3ccc(F)c(Cl)c3)c(C#N)c2)nc1` [compound 230] yielded an IC50 of 62 nM.
In the case of `Cc1ccc(Oc2ccc(S(=O)(=O)Nc3ccc(F)cn3)cc2C#N)cc1C#N` [Example 59, 3-cyano-4-(3-cyano-4-methylphenoxy)-N-(5-fluoropyridin-2-yl)benzenesulfonamide], the IC50 is reported as over 10000 nM.
`N#Cc1cc(S(=O)(=O)Nc2ccc(F)cn2)ccc1Oc1ccc(Cl)cc1I` [Example 58, 4-(4-chloro-2-iodophenoxy)-3-cyano-N-(5-fluoropyridin-2-yl)benzenesulfonamide] showed an IC50 of 287 nM.
In the case of `N#Cc1cc(S(=O)(=O)Nc2ccc(F)cn2)ccc1Oc1ccc(C(F)(F)F)cc1` [Example 54, 3-cyano-N-(5-fluoropyridin-2-yl)-4-[4-(trifluoromethyl)phenoxy]benzenesulfonamide], the IC50 is reported as over 10000 nM.
Compound `Cc1cc(F)ccc1Oc1ccc(S(=O)(=O)Nc2ccc(F)cn2)cc1C#N` [Example 145, 3-cyano-4-(4-fluoro-2-methylphenoxy)-N-(5-fluoropyridin-2-yl)benzenesulfonamide] has an IC50 of 96 nM.
`CC(C)(C)c1cc(Oc2ccc(S(=O)(=O)Nc3ccc(F)cn3)cc2C#N)ccc1C#N` [Example 161, 4-(3-tert-butyl-4-cyanophenoxy)-3-cyano-N-(5-fluoropyridin-2-yl)benzenesulfonamide] showed an IC50 of over 10000 nM.
`COc1ccc(F)c(Oc2ccc(S(=O)(=O)Nc3ccc(F)cn3)cc2C#N)c1` [Example 166, 3-cyano-4-(2-fluoro-5-methoxyphenoxy)-N-(5-fluoropyridin-2-yl)benzenesulfonamide] gave an IC50 of 116 nM.
Compound `N#Cc1ccc(Oc2cc(F)c(S(=O)(=O)Nc3ccc(F)cn3)cc2F)cc1F` [Example 95, 4-(4-cyano-3-fluorophenoxy)-2,5-difluoro-N-(5-fluoropyridin-2-yl)benzenesulfonamide] has an IC50 of over 10000 nM.
`Cc1cccc(Cl)c1Oc1ccc(S(=O)(=O)Nc2ccc(F)cn2)cc1C#N` [Example 123, 4-(2-chloro-6-methylphenoxy)-3-cyano-N-(5-fluoropyridin-2-yl)benzenesulfonamide] was tested, and the IC50 was 91 nM.
`N#Cc1cc(Cl)cc(Oc2ccc(S(=O)(=O)Nc3ccc(F)cn3)cc2C#N)c1` [Example 62, 4-(3-chloro-5-cyanophenoxy)-3-cyano-N-(5-fluoropyridin-2-yl)benzenesulfonamide] showed an IC50 of 27 nM.
In the case of `N#Cc1cc(S(=O)(=O)Nc2ccc(F)cn2)ccc1Oc1ccc(Cl)cc1F` [Example 47, 4-(4-chloro-2-fluorophenoxy)-3-cyano-N-(5-fluoropyridin-2-yl)benzenesulfonamide], the IC50 is reported as 50 nM.
With `N#Cc1cc(S(=O)(=O)Nc2ccc(F)cn2)ccc1Oc1cc(C(F)(F)F)ccc1F` [Example 4, 3-cyano-N-(5-fluoropyridin-2-yl)-4-[2-fluoro-5-(trifluoromethyl)phenoxy]benzenesulfonamide] the IC50 was over 10000 nM.
Compound `N#Cc1ccc(Oc2ccc(S(=O)(=O)Nc3ccc(F)cn3)cc2C#N)cc1Cl` [Example 1, 4-(3-chloro-4-cyanophenoxy)-3-cyano-N-(5-fluoropyridin-2-yl)benzenesulfonamide] has an IC50 of 13 nM.
With `N#Cc1ccc(Oc2ccc(S(=O)(=O)Nc3cccnn3)cc2C#N)cc1F` [Example 88, 3-cyano-4-(4-cyano-3-fluorophenoxy)-N-(pyridazin-3-yl)benzenesulfonamide] the IC50 was 429 nM.
In the case of `N#Cc1cc(S(=O)(=O)Nc2ccc(F)cn2)ccc1Oc1ccc(Br)cc1` [Example 163, 4-(4-bromophenoxy)-3-cyano-N-(5-fluoropyridin-2-yl)benzenesulfonamide], the IC50 is reported as over 10000 nM.
`COc1ccc(Oc2ccc(S(=O)(=O)Nc3ccc(F)cn3)cc2C#N)cc1C#N` [Example 66, 3-cyano-4-(3-cyano-4-methoxyphenoxy)-N-(5-fluoropyridin-2-yl)benzenesulfonamide] was tested, and the IC50 was 135 nM.
With `N#Cc1ccc(Oc2ccc(S(=O)(=O)Nc3cccnn3)cc2C#N)cc1Cl` [Example 98, 4-(3-chloro-4-cyanophenoxy)-3-cyano-N-(pyridazin-3-yl)benzenesulfonamide] the IC50 was 3870 nM.
`N#Cc1cc(S(=O)(=O)Nc2ccc(F)cn2)ccc1Oc1ccc(F)c(F)c1F` [Example 157, 3-cyano-N-(5-fluoropyridin-2-yl)-4-(2,3,4-trifluorophenoxy)benzenesulfonamide] showed an IC50 of 51 nM.
Compound `N#Cc1ccc(Oc2ccc(S(=O)(=O)Nc3ccncn3)cc2C#N)cc1Cl` [Example 87, 4-(3-chloro-4-cyanophenoxy)-3-cyano-N-(pyrimidin-4-yl)benzenesulfonamide] has an IC50 of over 7670 nM.
`N#Cc1ccc(Oc2ccc(S(=O)(=O)Nc3ccc(F)cn3)cc2C#N)c(Cl)c1` [Example 30, 4-(2-chloro-4-cyanophenoxy)-3-cyano-N-(5-fluoropyridin-2-yl)benzenesulfonamide] was tested, and the IC50 was 183 nM.
For `N#Cc1c(Cl)cccc1Oc1ccc(S(=O)(=O)Nc2cnccn2)cc1` [Example 223, 4-(3-chloro-2-cyanophenoxy)-N-(pyrazin-2-yl)benzenesulfonamide], the IC50 was over 10000 nM.
For `COc1ccc(C)c(Oc2ccc(S(=O)(=O)Nc3ccc(F)cn3)cc2C#N)c1` [Example 200, 3-cyano-N-(5-fluoropyridin-2-yl)-4-(5-methoxy-2-methylphenoxy)benzenesulfonamide], the IC50 was 53 nM.
Compound `N#Cc1ccc(Oc2ccc(S(=O)(=O)Nc3cnccn3)cc2C#N)cc1Cl` [Example 93, 4-(3-chloro-4-cyanophenoxy)-3-cyano-N-(pyrazin-2-yl)benzenesulfonamide] has an IC50 of 2980 nM.
Work on `N#Cc1cc(S(=O)(=O)Nc2ccc(F)cn2)ccc1Oc1ccc(N)cc1` [Example 224, 4-(4-aminophenoxy)-3-cyano-N-(5-fluoropyridin-2-yl)benzenesulfonamide] yielded an IC50 of over 10000 nM.
`COc1cccc(Oc2ccc(S(=O)(=O)Nc3ccc(F)cn3)cc2C#N)c1` [Example 208, 3-cyano-N-(5-fluoropyridin-2-yl)-4-(3-methoxyphenoxy)benzenesulfonamide] gave an IC50 of over 10000 nM.
`N#Cc1cc(S(=O)(=O)Nc2ccc(F)cn2)ccc1Oc1c(F)cccc1F` [Example 124, 3-cyano-4-(2,6-difluorophenoxy)-N-(5-fluoropyridin-2-yl)benzenesulfonamide] gave an IC50 of over 10000 nM.
Compound `N#Cc1cc(S(=O)(=O)Nc2ccc(F)cn2)ccc1Oc1cncc(Cl)c1` [Example 202, 4-[(5-chloropyridin-3-yl)oxy]-3-cyano-N-(5-fluoropyridin-2-yl)benzenesulfonamide] has an IC50 of 37 nM.
`N#Cc1ccc(Oc2ccc(S(=O)(=O)Nc3ncc(F)cn3)cc2C#N)cc1Cl` [Example 91, 4-(3-chloro-4-cyanophenoxy)-3-cyano-N-(5-fluoropyrimidin-2-yl)benzenesulfonamide] showed an IC50 of 1950 nM.
With `Cc1c(F)ccc(Oc2ccc(S(=O)(=O)Nc3ccc(F)cn3)cc2C#N)c1Cl` [Example 147, 4-(2-chloro-4-fluoro-3-methylphenoxy)-3-cyano-N-(5-fluoropyridin-2-yl)benzenesulfonamide] the IC50 was 187 nM.
For `Cc1ccnc(NS(=O)(=O)c2ccc(Oc3cccc(Cl)c3C#N)cc2)n1` [Example 220, 4-(3-chloro-2-cyanophenoxy)-N-(4-methylpyrimidin-2-yl)benzenesulfonamide], the IC50 was over 10000 nM.
`COc1cc(Cl)ccc1Oc1ccc(S(=O)(=O)Nc2cccnn2)cc1Cl` [Example 81, 3-chloro-4-(4-chloro-2-methoxyphenoxy)-N-(pyridazin-3-yl)benzenesulfonamide] gave an IC50 of over 10000 nM.
`COc1ccc(Oc2ccc(S(=O)(=O)Nc3ccc(F)cn3)cc2C#N)cc1F` [Example 132, 3-cyano-4-(3-fluoro-4-methoxyphenoxy)-N-(5-fluoropyridin-2-yl)benzenesulfonamide] gave an IC50 of 38 nM.
With `CCOc1ncccc1Oc1ccc(S(=O)(=O)Nc2ccc(F)cn2)cc1C#N` [Example 154, 3-cyano-4-[(2-ethoxypyridin-3-yl)oxy]-N-(5-fluoropyridin-2-yl)benzenesulfonamide] the IC50 was over 10000 nM.
Compound `CC(C)c1ncc(Oc2ccc(S(=O)(=O)Nc3ccc(F)cn3)cc2C#N)cc1Cl` [Example 117, 4-{[5-chloro-6-(propan-2-yl)pyridin-3-yl]oxy}-3-cyano-N-(5-fluoropyridin-2-yl)benzenesulfonamide] has an IC50 of over 10000 nM.
`O=S(=O)(Nc1ncccn1)c1cc(Cl)c(Oc2ccc(F)c(F)c2)cc1F` [compound 210] gave an IC50 of over 10000 nM.
In the case of `N#Cc1ccc(Cl)c(Oc2ccc(S(=O)(=O)Nc3ccc(F)cn3)cc2C#N)c1` [Example 63, 4-(2-chloro-5-cyanophenoxy)-3-cyano-N-(5-fluoropyridin-2-yl)benzenesulfonamide], the IC50 is reported as 321 nM.
With `N#Cc1cc(S(=O)(=O)Nc2ccc(F)cn2)ccc1Oc1ccc(F)c(F)c1` [Example 77, 3-cyano-4-(3,4-difluorophenoxy)-N-(5-fluoropyridin-2-yl)benzenesulfonamide] the IC50 was 43 nM.
Work on `N#Cc1ccc(Oc2ccc(S(=O)(=O)Nc3cc(F)ccn3)cc2C#N)cc1Cl` [Example 104, 4-(3-chloro-4-cyanophenoxy)-3-cyano-N-(4-fluoropyridin-2-yl)benzenesulfonamide] yielded an IC50 of 15 nM.
Work on `N#Cc1cc(S(=O)(=O)Nc2ccc(F)cn2)ccc1Oc1cc(F)cc(Cl)c1` [Example 28, 4-(3-chloro-5-fluorophenoxy)-3-cyano-N-(5-fluoropyridin-2-yl)benzenesulfonamide] yielded an IC50 of 92 nM.
For `Cc1ncc(Oc2ccc(S(=O)(=O)Nc3ccc(F)cn3)cc2C#N)cc1Cl` [compound 238], the IC50 was 88 nM.
For `Cc1ccncc1Oc1ccc(S(=O)(=O)Nc2ccc(F)cn2)cc1C#N` [Example 198, 3-cyano-N-(5-fluoropyridin-2-yl)-4-[(4-methylpyridin-3-yl)oxy]benzenesulfonamide], the IC50 was 792 nM.
